The molecules below were run on FOXC2-expressing HMLER cells (assay: Cell Titer Glo viability of FOXC2-HMLER cells (high throughput screen and 10-point response)). Conditions: Homo sapiens; scored relative to parent compound 1; 72 hours; read-out: Activity Score, inhibition of FOXC2-expressing HMLER cells by Formula I compounds.
Type: cell-based
Procedure: For high throughput screening, FOXC2-HMLER and HMLER cells were plated at 10^3 cells per well in white 384-well plates in 50 μL of MEGM medium (Lonza). Cells were allowed to attach for one hour before compound was transferred to each well as a DMSO solution using a 100 nL pintool head affixed to a PerkinElmer FX instrument. After 72-hour incubation, 30 μL of a Cell Titer Glo solution (diluted 1:6 in water, Promega) was dispensed into each well and luminance values were recorded using an Envision plate reader. […] All other miniaturized, selective viability experiments were performed as above using the indicated growth medium.
More specifically, in the high throughput screening assay above, each cell line was plated at 1,000 cells per well in 384-well plates, treated for 72 hours with 2 μM of test compound, and the viability of each line was determined in parallel by Cell Titer Glo (Promega) luminance measurements.
Cc1c(Cl)cc(N2CCN(c3cnnc4c(Cl)cccc34)CC2)cc1Cl [Compound 1SRAL] showed an IC50 of 1 to 20 µM. In the case of CC1CC(C)CN(c2cnnc3c(Cl)cccc23)C1 (centres unmarked) [Compound 1A], the IC50 is reported as 1 to 20 µM. With COc1cccc(N2CCN(c3cnnc4c(Cl)cccc34)CC2)c1 [Compound 1SRT] the IC50 was < 1 µM. In the case of Clc1cc(Cl)cc(N2CCN(c3cnnc4ccccc34)CC2)c1 [Compound 1SRN], the IC50 is reported as < 1 µM. With COc1ccc(N2CCN(c3nccn4nc(-c5ccc(Cl)cc5)cc34)CC2)cc1 [Compound 1F] the IC50 was > 20 µM. FC(F)(F)Sc1cccc(N2CCN(c3cnnc4c(Cl)cccc34)CC2)c1 [Compound 1SRQ] gave an IC50 of 1 to 20 µM. FC(F)(F)c1cc(Cl)cc(N2CCN(c3cnnc4c(Cl)cccc34)CC2)c1 [Compound 1SRAJ] gave an IC50 of 1 to 20 µM. Clc1ccccc1N1CCN(c2cnnc3c(Cl)cccc23)CC1 [Compound 1SRW] was tested, and the IC50 was 1 to 20 µM. With Clc1nccc(N2CCN(c3cnnc4c(Cl)cccc34)CC2)n1 [Compound 1SRAE] the IC50 was > 20 µM. Fc1cc(Cl)cc(N2CCN(c3cnnc4c(Cl)cccc34)CC2)c1 [Compound 1SRAG] was tested, and the IC50 was < 1 µM. In the case of Cc1cc(Cl)cc(N2CCN(c3cnnc4c(Cl)cccc34)CC2)c1 [Compound 1SRAI], the IC50 is reported as < 1 µM. Clc1ccc(Cl)c(N2CCN(c3cnnc4c(Cl)cccc34)CC2)c1 [Compound 1SRAB] showed an IC50 of 1 to 20 µM.

Same assay, conditions: Homo sapiens; scored relative to parent compound 2; 72 hours; read-out: Activity Score, inhibition of FOXC2-expressing HMLER cells by Formula II compounds
COc1ccc2cc(CNc3ccccc3)c(=O)n(CC(=O)Nc3ccccc3Cl)c2c1 [Compound 2DB] was tested, and the IC50 was > 20 µM. For COc1ccc2cc(CNc3ccccc3)c(=O)n(CC(=O)Nc3ccc(OC)c(OC)c3)c2c1 [Compound 2HF], the IC50 was > 20 µM. CCOc1ccc(NC(=O)Cn2c(=O)c(CNc3ccc(CC)cc3)cc3ccc(OC)cc32)cc1 [Compound 2Z] was tested, and the IC50 was 1 to 20 µM. For COc1cc2cc(CNc3ccccc3)c(=O)n(CC(=O)Nc3ccccc3)c2cc1OC [Compound 2EP], the IC50 was > 20 µM. For CCOc1ccc(NC(=O)Cn2c(=O)c(CNc3ccc(OC)cc3)cc3ccc(OC)cc32)cc1 [Compound 2CV], the IC50 was > 20 µM. With CCc1ccc(NCc2cc3ccc(OC)cc3n(CC(=O)Nc3ccc(F)cc3)c2=O)cc1 [Compound 2HK] the IC50 was > 20 µM. In the case of Cc1ccc(NCc2cc3cc4c(cc3n(CC(=O)Nc3cc(C)ccc3C)c2=O)OCCO4)cc1 [Compound 2CD], the IC50 is reported as > 20 µM. With COc1cccc(CNC(=O)Cn2c(=O)c(CNc3ccc(C)cc3)cc3ccc(OC)cc32)c1 [Compound 2HY] the IC50 was > 20 µM. With COc1ccc(NC(=O)Cn2c(=O)c(CNc3ccccc3)cc3cc4c(cc32)OCCO4)cc1 [Compound 2GO] the IC50 was > 20 µM. With COc1cccc(NC(=O)Cn2c(=O)c(CNc3ccccc3)cc3cc4c(cc32)OCCO4)c1 [Compound 2BY] the IC50 was > 20 µM. For COc1ccc2cc(CNc3ccc(C)cc3)c(=O)n(CC(=O)NCCc3ccccc3)c2c1 [Compound 2HH], the IC50 was > 20 µM. With Cc1ccc(NCc2cc3cc4c(cc3n(CC(=O)Nc3ccccc3)c2=O)OCCO4)cc1 [Compound 2DA] the IC50 was > 20 µM. Molecule COc1ccc2cc(CNc3ccc(C)cc3)c(=O)n(CC(=O)Nc3ccc(F)c(F)c3)c2c1 [Compound 2G] has an IC50 of 1 to 20 µM. COc1ccc(NCc2cc3ccc(OC)cc3n(CC(=O)Nc3ccc(C)cc3Cl)c2=O)cc1 [Compound 2GR] was tested, and the IC50 was > 20 µM. With CCc1ccc(NCc2cc3cc4c(cc3n(CC(=O)Nc3ccccc3C)c2=O)OCCO4)cc1 [Compound 2P] the IC50 was 1 to 20 µM. Molecule COc1cc2cc(CNc3ccccc3)c(=O)n(CC(=O)Nc3cccc(Cl)c3C)c2cc1OC [Compound 2Y] has an IC50 of 1 to 20 µM. COc1ccc2cc(CNc3ccc(C)cc3)c(=O)n(CC(=O)Nc3c(C)cc(C)cc3C)c2c1 [Compound 2K] was tested, and the IC50 was 1 to 20 µM. With COc1ccc2cc(CNc3ccccc3)c(=O)n(CC(=O)Nc3ccc(C)cc3Cl)c2c1 [Compound 2BA] the IC50 was > 20 µM. With COc1cc2cc(CNc3ccccc3)c(=O)n(CC(=O)Nc3ccc(F)cc3)c2cc1OC [Compound 2CG] the IC50 was > 20 µM. For CCOC(=O)c1ccccc1NC(=O)Cn1c(=O)c(CNc2ccccc2)cc2ccc(OC)cc21 [Compound 2C], the IC50 was < 1 µM. With COc1ccc2cc(CNc3ccccc3)c(=O)n(CC(=O)Nc3cccc(C(C)=O)c3)c2c1 [Compound 2EX] the IC50 was > 20 µM. For COc1ccc2cc(CNc3ccc(C)cc3)c(=O)n(CC(=O)Nc3cccc(C(F)(F)F)c3)c2c1 [Compound 2BZ], the IC50 was > 20 µM. For COc1cccc(NC(=O)Cn2c(=O)c(CNc3ccc(C)cc3)cc3ccc(OC)cc32)c1 [Compound 2HX], the IC50 was > 20 µM. For COc1ccc2cc(CNc3ccc(OC)c(OC)c3)c(=O)n(CC(=O)Nc3cccc(C)c3)c2c1 [Compound 2FK], the IC50 was > 20 µM. CCOc1ccc(NC(=O)Cn2c(=O)c(CNc3ccccc3)cc3ccc(C)cc32)cc1 [Compound 2CQ] was tested, and the IC50 was > 20 µM. With CCc1ccc(NCc2cc3ccc(OC)cc3n(CC(=O)Nc3cc(Cl)ccc3C)c2=O)cc1 [Compound 2GS] the IC50 was > 20 µM. COc1cccc(NC(=O)Cn2c(=O)c(CNc3ccc(OC)c(OC)c3)cc3ccc(C)cc32)c1 [Compound 2EU] was tested, and the IC50 was > 20 µM. With CCc1ccc(NCc2cc3ccc(OC)cc3n(CC(=O)Nc3cc(C)ccc3C)c2=O)cc1 [Compound 2AN] the IC50 was 1 to 20 µM. For COc1cccc(CNC(=O)Cn2c(=O)c(CNc3ccccc3)cc3ccc(OC)cc32)c1 [Compound 2BB], the IC50 was > 20 µM. For COc1ccc2c(c1)cc(CNc1ccc(OC)c(OC)c1)c(=O)n2CC(=O)Nc1ccc(C)cc1 [Compound 2HL], the IC50 was > 20 µM. In the case of CCc1ccc(NCc2cc3cc(OC)c(OC)cc3n(CC(=O)Nc3cc(C)cc(C)c3)c2=O)cc1 [Compound 2IH], the IC50 is reported as > 20 µM. For COc1cc2cc(CNc3ccccc3)c(=O)n(CC(=O)Nc3cc(Cl)ccc3C)c2cc1OC [Compound 2DP], the IC50 was > 20 µM. In the case of O=C(Cn1c(=O)c(CNc2ccccc2)cc2cc3c(cc21)OCCO3)Nc1ccccc1 [Compound 2EQ], the IC50 is reported as > 20 µM. CCOc1ccc(NC(=O)Cn2c(=O)c(CNc3ccccc3)cc3cc(OC)c(OC)cc32)cc1 [Compound 2GI] was tested, and the IC50 was > 20 µM. With COc1cc2cc(CNc3ccccc3)c(=O)n(CC(=O)Nc3ccccc3Cl)c2cc1OC [Compound 2FS] the IC50 was > 20 µM. With CCc1ccc(NC(=O)Cn2c(=O)c(CNc3ccc(C)cc3)cc3ccc(OC)cc32)cc1 [Compound 2CU] the IC50 was > 20 µM. CCc1ccc(NC(=O)Cn2c(=O)c(CNc3ccc(OC)cc3)cc3cc4c(cc32)OCCO4)cc1 [Compound 2IK] was tested, and the IC50 was > 20 µM. In the case of CCc1ccc(NCc2cc3ccc(OC)cc3n(CC(=O)Nc3ccc(C)c(C)c3)c2=O)cc1 [Compound 2CT], the IC50 is reported as > 20 µM. In the case of COc1cc2cc(CNc3ccccc3)c(=O)n(CC(=O)Nc3ccccc3C)c2cc1OC [Compound 2CZ], the IC50 is reported as > 20 µM. With COC(=O)c1ccccc1NC(=O)Cn1c(=O)c(CNc2ccccc2)cc2ccc(OC)cc21 [Compound 2] the IC50 was < 1 µM.

Same assay, conditions: Homo sapiens; scored relative to parent compound 3; 72 hours; read-out: Activity Score, inhibition of FOXC2-expressing HMLER cells by Formula III compounds
For O=C(c1ccc(-n2nnc3cccnc32)cc1)N1CCN(C2CCCCC2)CC1 [Compound 3AN], the IC50 was > 20 µM. Cc1c(C(=O)N2CCN(Cc3ccc4c(c3)OCO4)CC2)cccc1-n1nnc2cccnc21 [Compound 3BV] was tested, and the IC50 was > 20 µM. In the case of Cc1c(C(=O)NCCCN2CCC(N3CCCCC3)CC2)cccc1-n1nnc2cccnc21 [Compound 3CE], the IC50 is reported as > 20 µM. Molecule Cc1ccc(C)c(N2CCN(CCCNC(=O)c3cccc(-n4nnc5cccnc54)c3C)CC2)c1 [Compound 3AH] has an IC50 of 1 to 20 µM. With Cc1cc(C(=O)N2CCN(c3ccccc3)CC2)ccc1-n1nnc2cccnc21 [Compound 3L] the IC50 was 1 to 20 µM. With Cc1c(C(=O)N2CCC(Cc3ccccc3)CC2)cccc1-n1nnc2cccnc21 [Compound 3AF] the IC50 was 1 to 20 µM. In the case of Cc1cccc(CNC(=O)c2ccc(C)c(-n3nnc4cccnc43)c2)c1 [Compound 3BF], the IC50 is reported as > 20 µM. Work on O=C(c1cccc(-n2nnc3cccnc32)c1)N1CCN(c2cccc(Cl)c2)CC1 [Compound 3Q] yielded an IC50 of 1 to 20 µM. For Cc1ccc(C(=O)NCc2ccc(N(C)C)cc2)cc1-n1nnc2cccnc21 [Compound 3BM], the IC50 was > 20 µM. In the case of Cc1ccc(NC(=O)c2ccc(-n3nnc4cccnc43)c(C)c2)cc1C [Compound 3AR], the IC50 is reported as > 20 µM. With Cc1c(C(=O)NCCCN(C)Cc2ccccc2)cccc1-n1nnc2cccnc21 [Compound 3BX] the IC50 was > 20 µM. Cc1ccc(C)c(N2CCN(C(=O)c3ccc(C)c(-n4nnc5cccnc54)c3)CC2)c1 [Compound 3X] gave an IC50 of 1 to 20 µM. CCCCN(C)C(=O)c1cccc(-n2nnc3cccnc32)c1 [Compound 3AX] was tested, and the IC50 was > 20 µM.

Same assay, conditions: Homo sapiens; scored relative to parent compound 4; 72 hours; read-out: Activity Score, inhibition of FOXC2-expressing HMLER cells by Formula IV compounds
With Cc1ccccc1-c1cc(N2CCN(S(=O)(=O)c3cnn(C(F)F)c3C)CC2)ncn1 [Compound 4B] the IC50 was < 1 µM. With Cc1ccc(-n2nc(N3CCCN(S(=O)(=O)c4cnn(C(F)F)c4C)CC3)ccc2=O)cc1 [Compound 4AI] the IC50 was > 20 µM. Cc1ccc(S(=O)(=O)N2CCN(c3cc(-c4ccccc4)ncn3)CC2)c(C)c1 [Compound 4W] was tested, and the IC50 was > 20 µM. Cc1c(S(=O)(=O)N2CCN(c3ccc(=O)n(-c4ccccc4)n3)CC2)cnn1C(F)F [Compound 4AL] was tested, and the IC50 was > 20 µM. In the case of Cc1cccc(-c2cc(N3CCN(S(=O)(=O)c4cnn(C(F)F)c4C)CC3)ncn2)c1 [Compound 4S], the IC50 is reported as > 20 µM. For Cc1c(S(=O)(=O)N2CCN(c3cc(-c4ccccc4)ncn3)CC2)cnn1C(F)F [Compound 4X], the IC50 was > 20 µM. With CC(=O)c1ccc(N2CCN(S(=O)(=O)c3c(C)nn(-c4ccc(C)cc4)c3C)CC2)cc1 [Compound 4H] the IC50 was < 1 µM. In the case of Cc1c(S(=O)(=O)N2CCN(c3cc(-c4cccc(F)c4)ncn3)CC2)cnn1C(F)F [Compound 4A], the IC50 is reported as < 1 µM. For Cc1c(S(=O)(=O)N2CCN(C)c3ccccc32)cnn1C(F)F [Compound 4AN], the IC50 was > 20 µM.
